Tested on: biofilm extracellular matrix
Assay: dose dependent extracellular matrix degradation of the enzymes mutanase and dextranase (FIG. 4)
Type: cell-based
Settings: combination of mutanase and dextranase
From the text: FIG. 4 depicts the dose dependent extracellular matrix degradation of the enzymes mutanase and dextranase.
FIG. 4 depicts the dose dependent extracellular matrix degradation of the enzymes mutanase and dextranase in accordance with an embodiment of disclosed subject matter. While the catalytic function of iron oxide nanoparticles degrades the biofilm matrix more slowly than it substantially eradicates the bacteria, the rate of degradation can be enhanced with enzymes including mutanase and dextranase. A combination of 1.75 U mutanase and 8.75 U dextranase achieves maximal efficacy for extracellular matrix degradation.

Substance | amount that achieves maximal efficacy for extracellular matrix degradation
mutanase | 1.75 U
dextranase | 8.75 U

— patent US12433295B2, “Small-scale robots for biofilm eradication” (THE TRUSTEES OF THE UNIVERSITY OF PENNSYLVANIA, priority 2018, dated 2025)
